Experimental data: patent US9321770B2, “Crystals of pyrroloquinolinequinone sodium salts” (MITSUBISHI GAS CHEMICAL COMPANY, INC., priority 2009, dated 2016)
Where a name gives a salt, the structure may show the parent alone.

Assay: Thermal analysis: thermogravimetry (TG) and differential thermal analysis (DSC)
Type: physicochemical
Conditions: under air flow; for thermal stability of the solids (thermal analysis): temperature increased at 10° C./minute
Description: The obtained solids were subjected to thermogravimetry (TG) and differential thermal analysis (DSC) using Thermo plus EVO TG8120 manufactured by Rigaku Corporation. The temperature was increased under air flow at a rate of 10° C./minute.

Row | temperature from which reduction in the weight was observed (10° C./minute) | thermal stability of the solids (thermal analysis) (disodium salt) | temperature up to which there was no change (except evaporation of water at about 100° C.) (10° C./minute) [°C] | thermal stability of the solids (thermal analysis) (trisodium salt) | SMILES
1 | about 30 °C | unstable | – | – | O=C(O)c1cc(C(=O)O)c2c(n1)C(=O)C(=O)c1cc(C(=O)O)[nH]c1-2 [Comparative Example 1, PQQ disodium salt]
2 | – | low thermal stability | – | – | O=C(O)c1cc(C(=O)O)c2c(n1)C(=O)C(=O)c1cc(C(=O)O)[nH]c1-2 [Comparative Example 2, PQQ disodium salt]
3 | – | very stable | 270 | – | O=C(O)c1cc(C(=O)O)c2c(n1)C(=O)C(=O)c1cc(C(=O)O)[nH]c1-2 [Example 2, pyrroloquinoline quinone disodium salt]
4 | – | – | – | very high thermal stability | O=C(O)c1cc(C(=O)O)c2c(n1)C(=O)C(=O)c1cc(C(=O)O)[nH]c1-2 [Example 4, pyrroloquinoline quinone trisodium salt]
